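Tested at 5 concentrations; 48 h exposure; 96-well plates; endpoints linearly interpolated, else capped at highest concentration. At the GI50, growth is halved.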 Activity calls are given as the source filed them. Cut-off read from the data, not from the text of the source: active = GI50 up to about 1.1 µM and inactive = higher.
Experiments:
Experiment in all cases: NCI tumour cell line growth inhibition, 48 h
OVCAR-8 = system: OVCAR-8
UO-31 = system: UO-31
SR = system: SR
SW-620 = system: SW-620
SNB-19 = system: SNB-19
HCC 2998 = system: HCC 2998
SF-539 = system: SF-539
HCT-116 = system: HCT-116
SN12C = system: SN12C
Hs-578T = system: Hs-578T
HL-60 = system: HL-60
DU-145 = system: DU-145
OVCAR-3 = system: OVCAR-3
MDA-MB-435 = system: MDA-MB-435
NCI/ADR-RES = system: NCI/ADR-RES
NCI-H522 = system: NCI-H522
TK-10 = system: TK-10
SK-MEL-5 = system: SK-MEL-5
NCI-H460 = system: NCI-H460
UACC-62 = system: UACC-62
RPMI-8226 = system: RPMI-8226
A498 = system: A498
UACC-257 = system: UACC-257
SF-268 = system: SF-268
MDA-MB-231 = system: MDA-MB-231
SF-295 = system: SF-295
MOLT-4 = system: MOLT-4
SK-MEL-2 = system: SK-MEL-2
OVCAR-5 = system: OVCAR-5
BT-549 = system: BT-549
HOP-92 = system: HOP-92
HCT-15 = system: HCT-15
KM12 = system: KM12
Malme-3M = system: Malme-3M
CAKI-1 = system: CAKI-1
A549 = system: A549
SK-MEL-28 = system: SK-MEL-28
LOX IMVI = system: LOX IMVI
OVCAR-4 = system: OVCAR-4
NCI-H23 = system: NCI-H23
MDA-N = system: MDA-N
PC-3 = system: PC-3
T47D = system: T47D
MCF7 = system: MCF7
EKVX = system: EKVX
IGROV-1 = system: IGROV-1
U-251 = system: U-251
786-0 = system: 786-0
HT-29 = system: HT-29
CCRF-CEM = system: CCRF-CEM
HOP-62 = system: HOP-62
M14 = system: M14
ACHN = system: ACHN
COLO 205 = system: COLO 205
SNB-75 = system: SNB-75
NCI-H226 = system: NCI-H226
RXF 393 = system: RXF 393
SK-OV-3 = system: SK-OV-3

In the case of `CC(C)(C)OC(=O)N1CCC(C(=O)O)CC1`, the GI50 (OVCAR-8) is reported as > 100 µM (inactive), the GI50 (UO-31) is reported as > 100 µM (inactive) and the GI50 (SR) is reported as > 100 µM (inactive). The GI50 (SW-620) was > 100 µM (inactive), the GI50 (SNB-19) was > 100 µM (inactive) and the GI50 (HCC 2998) was > 100 µM (inactive). The GI50 (SF-539) was > 100 µM (inactive), the GI50 (HCT-116) was > 100 µM (inactive) and the GI50 (SN12C) was > 100 µM (inactive). The GI50 (Hs-578T) was > 100 µM (inactive), the GI50 (HL-60) was > 100 µM (inactive) and the GI50 (DU-145) was > 100 µM (inactive). The GI50 (OVCAR-3) was > 100 µM (inactive), the GI50 (MDA-MB-435) was > 100 µM (inactive) and the GI50 (NCI/ADR-RES) was > 100 µM (inactive). For the same molecule, the GI50 (NCI-H522) was > 100 µM (inactive), the GI50 (TK-10) was > 100 µM (inactive) and the GI50 (SK-MEL-5) was > 100 µM (inactive). For the same molecule, the GI50 (NCI-H460) was > 100 µM (inactive), the GI50 (UACC-62) was > 100 µM (inactive) and the GI50 (RPMI-8226) was > 100 µM (inactive). For the same molecule, the GI50 (A498) was > 100 µM (inactive), the GI50 (UACC-257) was > 100 µM (inactive) and the GI50 (SF-268) was > 100 µM (inactive). For the same molecule, the GI50 (MDA-MB-231) was > 100 µM (inactive), the GI50 (SF-295) was > 100 µM (inactive) and the GI50 (MOLT-4) was > 100 µM (inactive). For the same molecule, the GI50 (SK-MEL-2) was > 100 µM (inactive), the GI50 (OVCAR-5) was > 100 µM (inactive) and the GI50 (BT-549) was > 100 µM (inactive). The GI50 (HOP-92) was > 100 µM (inactive), the GI50 (HCT-15) was greater than 100 µM and the GI50 (KM12) was > 100 µM (inactive). For the same molecule, the GI50 (Malme-3M) was > 100 µM (inactive), the GI50 (CAKI-1) was > 100 µM (inactive) and the GI50 (A549) was > 100 µM (inactive). The GI50 (SK-MEL-28) was > 100 µM (inactive), the GI50 (LOX IMVI) was > 100 µM (inactive) and the GI50 (OVCAR-4) was > 100 µM (inactive). For the same molecule, the GI50 (NCI-H23) was > 100 µM (inactive), the GI50 (MDA-N) was > 100 µM (inactive) and the GI50 (PC-3) was > 100 µM (inactive). For the same molecule, the GI50 (T47D) was > 100 µM (inactive), the GI50 (MCF7) was > 100 µM (inactive) and the GI50 (EKVX) was > 100 µM (inactive). The GI50 (IGROV-1) was > 100 µM (inactive), the GI50 (U-251) was > 100 µM (inactive) and the GI50 (786-0) was > 100 µM (inactive). The GI50 (HT-29) was > 100 µM (inactive), the GI50 (CCRF-CEM) was > 100 µM (inactive) and the GI50 (HOP-62) was > 100 µM (inactive). For the same molecule, the GI50 (M14) was > 100 µM (inactive), the GI50 (ACHN) was > 100 µM (inactive) and the GI50 (COLO 205) was > 100 µM (inactive). For the same molecule, the GI50 (SNB-75) was > 100 µM (inactive).
For `CC(=O)OCCCCn1cc(Cn2ccc(=O)n(Cc3cn(CCCCOC(C)=O)nn3)c2=O)nn1`, the GI50 (OVCAR-8) was > 100 µM (inactive), the GI50 (UO-31) was > 100 µM (inactive) and the GI50 (SW-620) was > 100 µM (inactive). For the same molecule, the GI50 (SNB-19) was > 100 µM (inactive), the GI50 (HCC 2998) was > 100 µM (inactive) and the GI50 (SF-539) was > 100 µM (inactive). The GI50 (HCT-116) was > 100 µM (inactive), the GI50 (SN12C) was > 100 µM (inactive) and the GI50 (Hs-578T) was > 100 µM (inactive). The GI50 (NCI-H226) was > 100 µM (inactive), the GI50 (DU-145) was > 100 µM (inactive) and the GI50 (OVCAR-3) was > 100 µM (inactive). The GI50 (MDA-MB-435) was > 100 µM (inactive), the GI50 (NCI/ADR-RES) was > 100 µM (inactive) and the GI50 (TK-10) was > 100 µM (inactive). For the same molecule, the GI50 (SK-MEL-5) was > 100 µM (inactive), the GI50 (UACC-62) was > 100 µM (inactive) and the GI50 (RPMI-8226) was > 100 µM (inactive). For the same molecule, the GI50 (A498) was > 100 µM (inactive), the GI50 (UACC-257) was > 100 µM (inactive) and the GI50 (SF-268) was > 100 µM (inactive). The GI50 (MDA-MB-231) was > 100 µM (inactive), the GI50 (SF-295) was > 100 µM (inactive) and the GI50 (MOLT-4) was > 100 µM (inactive). The GI50 (SK-MEL-2) was > 100 µM (inactive), the GI50 (OVCAR-5) was > 100 µM (inactive) and the GI50 (BT-549) was > 100 µM (inactive). The GI50 (HOP-92) was > 100 µM (inactive), the GI50 (HCT-15) was greater than 100 µM and the GI50 (RXF 393) was > 100 µM (inactive). For the same molecule, the GI50 (KM12) was > 100 µM (inactive), the GI50 (Malme-3M) was > 100 µM (inactive) and the GI50 (CAKI-1) was > 100 µM (inactive). The GI50 (A549) was > 100 µM (inactive), the GI50 (SK-MEL-28) was > 100 µM (inactive) and the GI50 (LOX IMVI) was > 100 µM (inactive). The GI50 (OVCAR-4) was > 100 µM (inactive), the GI50 (NCI-H23) was > 100 µM (inactive) and the GI50 (MDA-N) was > 100 µM (inactive). The GI50 (PC-3) was > 100 µM (inactive), the GI50 (T47D) was > 100 µM (inactive) and the GI50 (MCF7) was > 100 µM (inactive). The GI50 (EKVX) was > 100 µM (inactive), the GI50 (IGROV-1) was > 100 µM (inactive) and the GI50 (U-251) was > 100 µM (inactive). The GI50 (786-0) was > 100 µM (inactive), the GI50 (CCRF-CEM) was > 100 µM (inactive) and the GI50 (HOP-62) was > 100 µM (inactive). For the same molecule, the GI50 (M14) was > 100 µM (inactive), the GI50 (ACHN) was > 100 µM (inactive) and the GI50 (SK-OV-3) was > 100 µM (inactive). The GI50 (COLO 205) was > 100 µM (inactive) and the GI50 (SNB-75) was > 100 µM (inactive).

— ChEMBL document CHEMBL1201862, “PubChem BioAssay data set” (2004)
